# Source: patent US9206156B2, “Substituted indole derivatives” (GRÜNENTHAL GMBH, priority 2008, dated 2015)
# Assays:
# ORL1 receptor = target: T1, ORL1 receptor (Homo sapiens, UniProt P41146); experiment: ORL1 receptor binding assay with 3H-nociceptin/orphanin FQ (WGA-SPA beads); conditions: c=1 μM test substance; 0.5 nM 3H-nociceptin/orphanin FQ; membranes of recombinant CHO-ORL1 cells
# T1 construct: expressed in transfected cells; host or cells: CHO (recombinant CHO-ORL1 cells), membranes
# Outline: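 Radioligand displacement on membranes from recombinant CHO-ORL1 cells, 0.5 nM 3H-nociceptin/orphanin FQ, 20 μg membrane protein per batch in 50 mM Hepes pH 7.4, 10 mM MgCl2, 1 mM EDTA. Incubated 1 h at room temperature with WGA-SPA beads, scintillation read. Reported as Ki (nM) or % inhibition at 1 μM.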
# human μ-opiate receptor = target: T2, human μ-opiate receptor (Homo sapiens, UniProt P35372); experiment: μ-opiate receptor binding assay with [3H] naloxone (WGA-SPA beads); conditions: 1 μmol/l test substance; 1 nmol/l [3H] naloxone; CHO-K1 cell membranes expressing human μ-opiate receptor
# T2 construct: purchased NEN, Zaventem, Belgium RB-HOM; host or cells: CHO-K1 cells (membrane preparation)
# Outline: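 CHO-K1 membranes expressing human μ-opiate receptor incubated 90 min at room temperature with 1 nmol/l [3H]naloxone and WGA-SPA beads in 50 mmol/l Tris-HCl with 0.05% azide, 0.06% BSA. Non-specific binding with 25 μmol/l naloxone; % inhibition at 1 μmol/l, or IC50 converted to Ki via Cheng-Prusoff.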
# T1 sequence (P41146 whole entry): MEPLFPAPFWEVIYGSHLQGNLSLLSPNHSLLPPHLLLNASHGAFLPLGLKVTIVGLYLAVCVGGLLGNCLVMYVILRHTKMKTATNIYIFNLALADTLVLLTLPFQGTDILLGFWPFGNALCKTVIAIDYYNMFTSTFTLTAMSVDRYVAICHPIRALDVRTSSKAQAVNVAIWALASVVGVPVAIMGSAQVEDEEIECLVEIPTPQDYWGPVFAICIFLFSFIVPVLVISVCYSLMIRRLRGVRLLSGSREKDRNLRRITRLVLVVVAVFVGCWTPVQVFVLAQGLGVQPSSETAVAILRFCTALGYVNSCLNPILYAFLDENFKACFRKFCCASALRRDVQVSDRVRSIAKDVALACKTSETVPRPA
# T2 sequence (P35372 whole entry): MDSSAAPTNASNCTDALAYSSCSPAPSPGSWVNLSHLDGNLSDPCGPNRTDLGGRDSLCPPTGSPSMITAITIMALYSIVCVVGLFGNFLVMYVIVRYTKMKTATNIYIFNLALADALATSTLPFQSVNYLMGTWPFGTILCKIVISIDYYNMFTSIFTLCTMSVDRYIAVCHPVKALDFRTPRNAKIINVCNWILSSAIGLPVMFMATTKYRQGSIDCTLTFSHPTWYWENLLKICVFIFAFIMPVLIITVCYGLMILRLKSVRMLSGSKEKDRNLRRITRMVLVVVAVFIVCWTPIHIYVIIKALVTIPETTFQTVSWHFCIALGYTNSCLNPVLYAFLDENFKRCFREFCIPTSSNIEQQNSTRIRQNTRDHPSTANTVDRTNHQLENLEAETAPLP
SMILES,inhibition at 1 µM (ORL1 receptor) [%],inhibition at 1 µM (human μ-opiate receptor) [%]
"CN(C(=O)c1ccc2cc[nH]c2c1)C(C(=O)N1CCC(c2cccs2)(N(C)C)CC1)c1ccccc1 (centres unmarked) [Example 102, N-(2-(4-(dimethylamino)-4-(thiophen-2-yl)piperidin-1-yl)-2-oxo-1-phenylethyl)-N-methyl-1H-indole-6-carboxamide]",65,66
"CN(C)C1(c2ccccc2)CCN(C(=O)C2CCCN(C(=O)C3CCCc4c3[nH]c3ccc(Cl)cc43)C2)CC1 (centres unmarked) [Example 103, (6-chloro-2,3,4,9-tetrahydro-1H-carbazol-1-yl)(3-(4-(dimethylamino)-4-phenylpiperidine-1-carbonyl)piperidin-1-yl)methanone]",65,35
"CN(C)C1(c2ccccc2)CCN(C(=O)C2CCCN(C(=O)c3cc4cc(F)ccc4[nH]3)C2)CC1 (centres unmarked) [Example 104, (4-(dimethylamino)-4-phenylpiperidin-1-yl)(1-(5-fluoro-1H-indole-2-carbonyl)piperidin-3-yl)methanone]",64,89
"CC(C)C(CC(=O)N(C)C(C(=O)N1CCC(c2cccs2)(N(C)C)CC1)c1ccccc1)c1c[nH]c2ccccc12 (centres unmarked) [Example 105, N-(2-(4-(dimethylamino)-4-(thiophen-2-yl)piperidin-1-yl)-2-oxo-1-phenylethyl)-3-(1H-indol-3-yl)-N,4-dimethylpentanamide]",63,91
"CC(C)C(CC(=O)N1CCCC(C(=O)N2CCC(c3ccccc3)(N(C)C)CC2)C1)c1c[nH]c2ccccc12 (centres unmarked) [Example 106, 1-(3-(4-(dimethylamino)-4-phenylpiperidine-1-carbonyl)piperidin-1-yl)-3-(1H-indol-3-yl)-4-methylpentan-1-one]",63,92
"CN(C)C1(c2ccccc2)CCN(C(=O)CCNC(=O)C2CCCc3c2[nH]c2ccc(Cl)cc32)CC1 (centres unmarked) [Example 107, 6-chloro-N-(3-(4-(dimethylamino)-4-phenylpiperidin-1-yl)-3-oxopropyl)-2,3,4,9-tetrahydro-1H-carbazole-1-carboxamide]",63,52
"CN(C)C1(c2cccs2)CCN(C(=O)CC(NC(=O)c2cccc3c2ccn3C)c2ccccc2)CC1 (centres unmarked) [Example 108, N-(3-(4-(dimethylamino)-4-(thiophen-2-yl)piperidin-1-yl)-3-oxo-1-phenylpropyl)-1-methyl-1H-indole-4-carboxamide]",63,98
"CN(C)C1(c2cccs2)CCN(C(=O)CNC(=O)c2ccc3ccn(C)c3c2)CC1 [Example 109, N-(2-(4-(dimethylamino)-4-(thiophen-2-yl)piperidin-1-yl)-2-oxoethyl)-1-methyl-1H-indole-6-carboxamide]",61,81
"CN(C(=O)CCc1c[nH]c2ccccc12)C(C(=O)N1CCC(c2cccs2)(N(C)C)CC1)c1ccccc1 (centres unmarked) [Example 110, N-(2-(4-(dimethylamino)-4-(thiophen-2-yl)piperidin-1-yl)-2-oxo-1-phenylethyl)-3-(1H-indol-3-yl)-N-methylpropanamide]",60,92
"CN(C(=O)c1ccc2ccn(C)c2c1)C(C(=O)N1CCC(c2cccs2)(N(C)C)CC1)c1ccccc1 (centres unmarked) [Example 111, N-(2-(4-(dimethylamino)-4-(thiophen-2-yl)piperidin-1-yl)-2-oxo-1-phenylethyl)-N,1-dimethyl-1H-indole-6-carboxamide]",60,82
"CCCCC1(N(C)C)CCN(CCN(C)C(=O)Cc2c[nH]c3cc(F)ccc23)CC1 [Example 112, N-(2-(4-butyl-4-(dimethylamino)piperidin-1-yl)ethyl)-2-(6-fluoro-1H-indol-3-yl)-N-methylacetamide]",59,92
"CN(C)C1(c2ccccc2)CCN(C(=O)CCNC(=O)c2ccc3cc[nH]c3c2)CC1 [Example 113, N-(3-(4-(dimethylamino)-4-phenylpiperidin-1-yl)-3-oxopropyl)-1H-indole-6-carboxamide]",57,89
"CN(C)C1(c2ccccc2)CCN(C(=O)C2CN(C(=O)c3cccc4c3ccn4C)c3ccccc32)CC1 (centres unmarked) [Example 114, (4-(dimethylamino)-4-phenylpiperidin-1-yl)(1-(1-methyl-1H-indole-4-carbonyl)indolin-3-yl)methanone]",56,90
"CN(C)C1(c2ccccc2)CCN(C(=O)C2CCCN(C(=O)Cc3c[nH]c4ccc(Br)cc34)C2)CC1 (centres unmarked) [Example 115, 2-(5-bromo-1H-indol-3-yl)-1-(3-(4-(dimethylamino)-4-phenylpiperidine-1-carbonyl)piperidin-1-yl)ethanone]",53,72
"CN(C)C1(c2cccs2)CCN(C(=O)CNC(=O)C2CCCc3c2[nH]c2ccc(Cl)cc32)CC1 (centres unmarked) [Example 116, 6-chloro-N-(2-(4-(dimethylamino)-4-(thiophen-2-yl)piperidin-1-yl)-2-oxoethyl)-2,3,4,9-tetrahydro-1H-carbazole-1-carboxamide]",50,83
"CN(C)C1(c2ccccc2)CCN(C(=O)CCNC(=O)CCc2cn(C)c3ccccc23)CC1 [Example 117, N-(3-(4-(dimethylamino)-4-phenylpiperidin-1-yl)-3-oxopropyl)-3-(1-methyl-1H-indol-3-yl)propanamide]",48,79
"CN(C)C1(c2ccccc2)CCN(C(=O)C2CN(C(=O)c3ccc4ccn(C)c4c3)c3ccccc32)CC1 (centres unmarked) [Example 118, (4-(dimethylamino)-4-phenylpiperidin-1-yl)(1-(1-methyl-1H-indole-6-carbonyl)indolin-3-yl)methanone]",46,97
"CN(CCN1CCC(c2ccccc2)(N(C)C)CC1)C(=O)c1ccc2ccn(C)c2c1 [Example 119, N-(2-(4-(dimethylamino)-4-phenylpiperidin-1-yl)ethyl)-N,1-dimethyl-1H-indole-6-carboxamide]",45,95
"CN(C)c1ccc2cc(C(=O)NCCC(=O)N3CCC(c4ccccc4)(N(C)C)CC3)[nH]c2c1 [Example 120, 6-(dimethylamino)-N-(3-(4-(dimethylamino)-4-phenylpiperidin-1-yl)-3-oxopropyl)-1H-indole-2-carboxamide]",45,60
"CN(C)C1(c2ccccc2)CCN(C(=O)CCNC(=O)c2cccc3c2ccn3C)CC1 [Example 121, N-(3-(4-(dimethylamino)-4-phenylpiperidin-1-yl)-3-oxopropyl)-1-methyl-1H-indole-4-carboxamide]",44,88
"CC(CC(=O)N1CCCC(C(=O)N2CCC(c3ccccc3)(N(C)C)CC2)C1)c1c[nH]c2ccccc12 (centres unmarked) [Example 122, 1-(3-(4-(dimethylamino)-4-phenylpiperidine-1-carbonyl)piperidin-1-yl)-3-(1H-indol-3-yl)butan-1-one]",43,84
"CN(C)C1(c2ccccc2)CCN(C(=O)C2CCCN(C(=O)CCc3c[nH]c4ccccc34)C2)CC1 (centres unmarked) [Example 123, 1-(3-(4-(dimethylamino)-4-phenylpiperidine-1-carbonyl)piperidin-1-yl)-3-(1H-indol-3-yl)propan-1-one]",43,72
